We go through seven molecules from patent US6242452A, “7-aminopyrido[2,3-D]pyrimidine derivatives” (Nippon Zoki Pharmaceutical Co., Ltd., priority 1998, dated 2001).

Molecules are shown by their SMILES. pEC50: −log10 of the molar value.

For data set [1], the system named is airway smooth muscle isolated from guinea pigs. The data set can be described thus: Relaxing action to smooth muscle of airway of guinea pigs (histamine-constricted). Type of data set: cell-based. To be noted: Cavia porcellus; guinea pig airway, constricted with 10^-4 M histamine, cumulative addition; read-out: EC50, concentration showing 50% of the maximum reaction (relaxation). From the text: […] Action to Smooth Muscle of Airway of Guinea Pigs A guinea pig was killed by draining out the blood, the airway was isolated, and four airway pieces having a width of about 1 cm cut along the cartilage were connected by silk yarn to prepare an airway smooth muscle sample. The sample was hung with a load of about 0.5 g in a 5-mL Magnus vessel filled with a Tyrode solution and aerated with a mixed gas (95% O2 and 5% CO2). […] This was repeatedly treated with 10^-5 M of histamine and, after confirming that the constriction became constant, it was treated with 10^-4 M of histamine. After the maximum constriction reaction of the smooth muscle became constant, the test compound was added thereto starting from a low concentration cumulatively to investigate the relaxing action. […] Pat. […] Pat. No. 4,808,587 to Go et al and in U.S. Pat. No. 5,776,942 to Furukawa et al) and theophylline were used as control agents.

The subject of data set [2] is Mice. The data set can be described thus: Influence on general symptoms of mice (modified Irwin's method). To be noted: for Death: oral, 5 mice per group, until the next day. Type of data set: in vivo. The method, then:
Influence on General Symptoms of Mice
Mice having no abnormality in their appearance before administration of the test drugs were selected, and five mice were used for each group. Oral administration of the test compound was carried out and, 30 minutes, one hour and two hours thereafter, observations were conducted according to the modified method of Irwin's method for observing the general symptoms of mice. Degree of the symptom was evaluated in terms of (+) and (-) and, when the symptom was apparently severe, it was mentioned as (++). Also, death was observed until the next day of the administration.
1) Suppression of spontaneous motility: When mice were transferred from a home cage to a cage for symptom observation and, if motion of the mice was less than the non-administered group at that time, that was evaluated as (+).
2) Muscle relaxation: When forefeet of mice were hung on a wire stretched horizontally so that the mice were hung by means of the forefeet and, if their reaction at that time for climbing up the wire took a longer time than the non-administered group, that was evaluated as (+).
4) Blepharoptosis: If 1/4 or more was closed as compared with the non-administered group, that was evaluated as (+).
5) Salivation: If salivation was noted a little around the mouth, that was evaluated as (+).
6) Death: If dead case was noted, that was mentioned as such.
5-Amino-1,3-diethyl-1,2,3,4-tetrahydropyrido[2,3-d]-pyrimidine-2,4-dione (Control Compound B; a compound mentioned in Japanese Laid-Open Patent Publication Sho-63/45279 and in U.S. Pat. Nos. 4,808,587 and 5,776,942) was used as a control drug.

The nature of data set [3]: Concentration in blood of guinea pigs. The conditions noted are these: guinea pig, oral, 30 mg/kg in 1% methyl cellulose, plasma, HPLC; for AUC: read-out: AUC 0-lim, area under a curve of concentration in blood vs. time; for Cmax: read-out: Cmax, maximum concentration in blood; for half-life: read-out: T1/2, half life in blood (converted); for Tmax: read-out: Tmax, time required for achieving the maximum concentration in blood. Type of data set: in vivo. On the procedure: Concentration in Blood of Guinea Pigs
Each test substance was orally administered at a dose of 30 mg/kg. It was suspended in 1% methyl cellulose and made into a preparation so as to make the administering dose 5 mL/kg. A group consisted of four animals and blood was collected after 30 minutes, 1 hour, 2 hours, 4 hours, 6 hours and 24 hours from the administration. (A feed was given after collection of the blood after 6 hours). Thus, each about […] (corresponding to four capillary tubes) of blood were collected with intervals using a heparintreated capillary tube and plasma was separated by a hematocrit centrifuge to prepare a plasma sample. A plasma sample of about […] was preserved at -80° C. until the measurement. Methanol ([…]) was added to […] of the plasma followed by mixing, the mixture was centrifuged at 1500×g for ten minutes at […] and the separated supernatant liquid was filtered through a membrane filter of […]. The filtrate was used as a sample for an HPLC, analyzed under the analyzing condition that the column was 100 mm×4.6 mm (inner diameter) of TSK-gel Super ODS, the flow rate was 1.0 mL/minute, the column temperature was 40° C., an injection amount was […], detection was done by UV of 225 nm and the mobile phase was water-acetonitrile (75:25 in terms of % by volume) and the maximum concentration in blood (Cmax), time required for achieving the maximum concentration in blood (Tmax), half life in blood (T1/2) and area under a curve of concentration in blood vs. time (AUC 0-lim) were determined. RS-25344 (Cell Signalling, 7(5), 527 (1995); Mol. Pharmacol., 48, 616 (1995)) and CR-77059 (J. Med. Chem., 34, 624 (1991); J. Pharmacol. Exp. Ther., 272, 3,1313 (1995)) were used as control drugs.

Data set [4] deals with smooth muscle of blood vessel isolated from rats. As to the kind of experiment: Influence on continuous constriction of smooth muscle of blood vessel isolated from rats (noradrenaline-constricted pulmonary main artery). The conditions noted are these: rat pulmonary main artery, constricted with 10^-7 M noradrenaline, 37° C.; read-out: EC50, concentration showing 50% of the maximum reaction (relaxation). Type of data set: cell-based. On the procedure:
Influence on Continuous Constriction of […] Smooth Muscle of Rats
The back of the head of a rat was struck to cause a cerebral concussion, carotid arteries on both sides were immediately cut and the pulmonary main artery was isolated. The isolated artery was fully aerated with a mixed gas (95% O2 and 5% CO2), placed in a Krebs-Henselite solution warmed at 37° C., excessive tissues were removed as much as possible and a spiral sample (having a width of about 2 mm and a length of 15 mm) was prepared according to a method of Furchgott, et al. The blood vessel sample was hung with a load of about 0.5 g in a 5-mL Magnus vessel filled with a Krebs-Henseleit solution and aerated with a mixed gas (95% O2 and 5% CO2). After the sample was allowed to stand for 30 minutes to one hour, it was treated with noradrenaline (final concentration: 10^-7 M) and the constricting reaction was amplified via an amplifier for blood pressure using an FD pickup and recorded on a recorder. Noradrenaline (10^-7 M) was repeatedly applied and, after confirming that the constriction became constant, 10^-7 M of noradrenaline was applied. After the maximum shrinking reaction of the smooth muscle became constant, the test compound was added thereto starting from a low concentration cumulatively to investigate the relaxing action. A dose vs. reaction curve was prepared from the isotonic reaction of various concentrations of the test compound and an EC50, a concentration showing 50% of the maximum reaction, was determined.

On to `CCCCn1c(=O)c2ccc(N)nc2n(-c2cc(OC)cc(OC)c2)c1=O` [Compound 7, 7-amino-3-butyl-1-(3,5-dimethoxyphenyl)-1,2,3,4-tetrahydropyrido[2,3-d]pyrimidine-2,4-dione], for which, in data set [1], the pEC50 is 6.23. For the same molecule, in data set [2] (mouse, in vivo, po, 300 mg/kg), the Blepharoptosis result is “(+) × 1”, the Muscle relaxation entry is recorded as “(+) × 2” and the “Suppression of spontaneous motility” value was “(+) × 2”. Further, the Muscle relaxation entry in data set [2] (mouse, in vivo, po, 1000 mg/kg) is given as “(+) × 3”. In data set [2] (300 mg/kg), this molecule gave a Death of 0. The molecule further showed a Death in data set [2] (1000 mg/kg) of 0. Moreover, in data set [3], the AUC was found to be 28.6 µg·h/mL, the Cmax stood at 1600 ng/mL, the half-life was 131 h and the Tmax was found to be 15 h.
`Nc1ccc2c(=O)n(Cc3ccccc3)c(=O)n(-c3ccccc3)c2n1` [Compound 16, 7-amino-3-benzyl-1,2,3,4-tetrahydro-1-phenylpyrido[2,3-d]pyrimidine-2,4-dione]: the pEC50 in data set [1] is 7.64; in data set [4] it was 4.30.
As to `CCn1c(=O)c2c(N)ccnc2n(CC)c1=O` [Control Compound B, 5-Amino-1,3-diethyl-1,2,3,4-tetrahydropyrido[2,3-d]-pyrimidine-2,4-dione, reference compound], in data set [1], the pEC50 is 6.08. For the same molecule, in data set [2] (mouse, in vivo, po, 100 mg/kg), the Blepharoptosis entry was “(+) × 2”, the Muscle relaxation entry is on record as “(+) × 3”, the Passiveness result is on record as “(+) × 1” and the “Suppression of spontaneous motility” value is on record as “(+) × 3”. Moreover, the “Suppression of spontaneous motility” value in data set [2] (mouse, in vivo, po, 300 mg/kg) is given as “(+) × 3”. The molecule further yielded a Death in data set [2] (100 mg/kg) of 0. The molecule further displayed a Death in data set [2] (300 mg/kg) of 0.
As for `CCCn1c(=O)c2ccc(N)nc2n(-c2cc(OC)cc(OC)c2)c1=O` [Compound 6, 7-amino-1-(3,5-dimethoxyphenyl)-1,2,3,4-tetrahydro-3-propylpyrido[2,3-d]pyrimidine-2,4-dione], the pEC50 in data set [1] is 6.40. In data set [4], the pEC50 is under 4.00. In data set [2] (mouse, in vivo, po, 300 mg/kg), the Blepharoptosis result is reported as “(+) × 1” and the “Suppression of spontaneous motility” value is “(+) × 1”. Further, in data set [2] (mouse, in vivo, po, 1000 mg/kg), the Blepharoptosis entry is “(+) × 2”, the Muscle relaxation entry was “(+) × 2” and the “Suppression of spontaneous motility” value is “(+) × 2”. Also, the Death in data set [2] (300 mg/kg) is listed as 0. The Death in data set [2] (1000 mg/kg) is 0. Also, in data set [3], the AUC came out at 256 µg·h/mL, the Cmax turned out to be 13700 ng/mL, the half-life is 28.4 h and the Tmax was 4 h.
As for `CCn1c(=O)c2ccc(N)nc2n(-c2cc(OC)cc(OC)c2)c1=O` [Compound 5, 7-amino-3-ethyl-1-(3,5-dimethoxyphenyl)-1,2,3,4-tetrahydropyrido[2,3-d]pyrimidine-2,4-dione], the pEC50 in data set [1] was 5.77. Moreover, the pEC50 in data set [4] is under 4.00. In addition, in data set [2] (mouse, in vivo, po, 1000 mg/kg), the Blepharoptosis result is reported as “(+) × 3”, the Muscle relaxation entry is “(+) × 3” and the “Suppression of spontaneous motility” value is listed as “(+) × 2”. In data set [2] (1000 mg/kg), this molecule had a Death of 0. Besides, in data set [3], the AUC was determined as 458 µg·h/mL, the Cmax turned out to be 30000 ng/mL, the half-life was 12.1 h and the Tmax was determined as 3 h.
As to `COc1cc(OC)cc(-n2c(=O)n(CC(C)C)c(=O)c3ccc(N)nc32)c1` [Compound 15], the pEC50 in data set [1] is 6.68. Moreover, the pEC50 in data set [4] is under 4.00. Besides, in data set [3], the AUC was 134 µg·h/mL, the Cmax stood at 10100 ng/mL, the half-life is 9.8 h and the Tmax worked out at 2.3 h.
As to `COc1cc(OC)cc(-n2c(=O)n(Cc3ccncc3)c(=O)c3ccc(N)nc32)c1` [Compound 18, 7-amino-1-(3,5-dimethoxyphenyl)-1,2,3,4-tetrahydro-3-(4-picolyl)pyrido[2,3-d]pyrimidine-2,4-dione], the pEC50 in data set [1] is 7.21; in data set [4], under 4.00.
